Data: article PMC7403315, “Cyclic peptide FXII inhibitor provides safe anticoagulation in a thrombosis model and in artificial lungs” (Nature Communications, 2020)
Read-outs that look alike come from different tables or passages of the source. Each block holds one compound with its values, some of them ahead of it. Starred links: 1 amine or outer side, 2 acyl side, 3 side chain; linkers in the order of their positions; H or OH if unused. Positions of bridges follow the written chain, without caps; N, C: chain ends. Non-standard residues stand in square brackets, D forms with d. Residues, ends and D or L forms follow the SMILES beside them. TATA = O=C(CC[*:1])N1CN(C(=O)CC[*:2])CN(C(=O)CC[*:3])C1; Phe(4-F) = N[C@@H](Cc1ccc(F)cc1)C(=O)O; β3hR = N=C(N)NCCC[C@H](N)CC(=O)O

Target: T1, recombinant pig FXIIa (Sus scrofa, UniProt O97507)
T1 construct: of FXII into a heavy chain (HC) and a light chain (LC); made in house; host or cells: CHO cells
T1 sequence (O97507 20-616): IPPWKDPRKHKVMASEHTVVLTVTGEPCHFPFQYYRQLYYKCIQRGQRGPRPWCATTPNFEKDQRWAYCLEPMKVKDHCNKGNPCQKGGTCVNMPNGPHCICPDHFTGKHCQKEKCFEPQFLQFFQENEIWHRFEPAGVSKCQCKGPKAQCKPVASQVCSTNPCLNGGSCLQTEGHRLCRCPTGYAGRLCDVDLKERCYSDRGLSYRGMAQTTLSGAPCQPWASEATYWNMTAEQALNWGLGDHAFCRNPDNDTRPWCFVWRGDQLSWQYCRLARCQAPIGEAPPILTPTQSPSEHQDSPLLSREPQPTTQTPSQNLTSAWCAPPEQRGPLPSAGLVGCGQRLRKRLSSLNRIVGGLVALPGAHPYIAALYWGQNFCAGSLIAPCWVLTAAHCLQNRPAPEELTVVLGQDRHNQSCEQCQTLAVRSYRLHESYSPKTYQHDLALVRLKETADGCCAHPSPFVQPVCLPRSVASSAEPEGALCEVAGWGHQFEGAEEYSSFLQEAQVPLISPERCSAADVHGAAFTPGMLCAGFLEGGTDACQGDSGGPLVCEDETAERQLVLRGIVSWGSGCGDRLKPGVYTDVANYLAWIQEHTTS
Assay: Inhibition of recombinant FXIIa (rFXIIa)
Assay type: biochemical
Excerpt: The protein sequences for human, rabbit and pig factor XII were taken from the following database entries: human FXII: UniProtKB - P00748; rabbit FXII: NCBI RefSeq - XP_008253687.1; pig FXII: UniProtKB - O97507. The sequences are shown in the Supplementary Methods. DNA encoding the full-length proteins were ordered from Eurofins Genomics. The codons in these sequences were optimized for mammalian expression using the codon optimization tool from Integrated DNA Technologies (IDT). In addition to the FXII gene, the ordered DNA sequences encode a C-terminal GSGS-linker, a His6-tag and a stop codon, and they are flanked by NheI (GCTAGC) and a HindIII (AAGCTT) restriction sites. The entire DNA sequences are provided in the supporting materials. The DNA sequences were cloned into the pEXPR-IBA42 vector downstream of a BM40 signal sequence for secreted expression in mammalian cells. The ligated vector was transformed into DH5 alpha electrocompetent E. coli cells. Plasmid DNA from single clones was sequenced by Sanger sequencing.
1.5 mg plasmid DNA was transfected into 500 ml CHO cells (Thermo Fisher Scientific) in cell suspension culture using polyethylenimine (PEI). Cells were incubated for seven days at 37 °C, 5% CO2 under shaking conditions. The cells were removed by centrifugation and the secreted protein was purified from the supernatant using a nickel-charged immobilized metal affinity chromatography (IMAC) column (5 ml HisTrap FF Crude, GE Healthcare). The column was equilibrated with buffer containing 15 mM imidazole, 100 mM NaCl, 20 mM Tris-HCl, pH 7.4. The pH of the cell culture supernatant was adjusted to 8.0 using NaOH. The supernatant was run through the column at a flow of 5 ml per min. The column was washed with 20 column volumes of equilibration buffer at a flow of 5 ml per min. The protein was eluted with 500 mM imidazole, 100 mM NaCl, 20 mM Tris-HCl, pH 7.4 at a flow of 5 ml per min. The buffer was subsequently exchanged to 100 mM NaCl, 20 mM Tris-HCl, pH 7.4 by three iterative steps of 10-fold dilution and 10-fold concentration using a 10,000 MWCO centrifugal concentrator. The concentration was determined by measuring absorption at 280 nm (ε = 100,000). For the activation of recombinant FXII, 10 μg protein was diluted to a total volume of 10 μl 100 mM NaCl, 20 mM Tris-HCl, pH 7.4 and further diluted with 10 μl of 2-fold concentrated assay buffer (300 mM NaCl, 20 mM MgCl2, 2 mM CaCl2, 20 mM Tris-HCl, 0.02% (v/v) Triton-X100, pH 7.4). Dextran sulfate 500 kDa (DXS500) was added to a final concentration of 0.2 μg μl^−1 and incubated for 1 hour at 37 °C. 5 μg protein was analyzed by SDS-PAGE under reducing conditions.
Protease inhibition assays
The inhibitory activity of peptides was determined by measuring the residual protease activity with a fluorogenic substrate. The assay was performed in buffer containing 10 mM Tris-Cl, pH […]
1% (v/v) DMSO in a volume of 150 µl. FXIIa activity was measured with the fluorogenic substrate Boc-Gln-Gly-Arg-AMC (Bachem) at a final concentration of 50 µM. Mouse α-FXIIa (Molecular Innovations cat # MFXIIA) and human β-FXIIa (Molecular Innovations cat # HFXIIAB) were used at final concentrations of 0.4 nM. The reaction was pipetted as follows: 50 µl of bicyclic peptide in assay buffer were added to 50 µl of FXIIa in assay buffer and incubated for 10 minutes at 25°C before 50 µl of 150 µM fluorogenic substrate in assay buffer were added to measure the residual protease activity with an Infinite M200Pro fluorescence plate reader (excitation at 368 nm, emission at 467 nm; Tecan) for a period of 30 minutes with a read every minute at 25°C. The Tecan software i-control (version 1.1) was used for data analysis. Stock solutions of 1 mM bicyclic peptide were prepared by either dissolving the unpurified cyclization reaction with water or by dissolving purified and lyophilized peptide in water. The bicyclic peptides were serially diluted two-fold using assay buffer. Sigmoidal curves were fitted to the […]

remaining activity at 0.00195312 µM (Recombinant pig FXII, peptide 1.95312 nM, individual plates, read-out: Residual activity (%)): 102%
remaining activity at 0.00390625 µM (Recombinant pig FXII, peptide 3.90625 nM, individual plates, read-out: Residual activity (%)): 103%
remaining activity at 0.0078125 µM (Recombinant pig FXII, peptide 7.8125 nM, individual plates, read-out: Residual activity (%)): 95.8%
remaining activity at 0.015625 µM (Recombinant pig FXII, peptide 15.625 nM, individual plates, read-out: Residual activity (%)): 92.8%
remaining activity at 0.03125 µM (Recombinant pig FXII, peptide 31.25 nM, individual plates, read-out: Residual activity (%)): 87.6%
remaining activity at 0.0625 µM (Recombinant pig FXII, peptide 62.5 nM, individual plates, read-out: Residual activity (%)): 82.2%
remaining activity at 0.125 µM (Recombinant pig FXII, peptide 125 nM, individual plates, read-out: Residual activity (%)): 71%
remaining activity at […] (Recombinant pig FXII, peptide 250 nM, individual plates, read-out: Residual activity (%)): 54.9%
remaining activity at 0.5 µM (Recombinant pig FXII, peptide 500 nM, individual plates, read-out: Residual activity (%)): 38%
remaining activity at 1 µM (Recombinant pig FXII, peptide 1000 nM, individual plates, read-out: Residual activity (%)): 21.5%
remaining activity at 2 µM (Recombinant pig FXII, peptide 2000 nM, individual plates, read-out: Residual activity (%)): 14.6%
SMILES: CC(C)C[C@@H]1NC(=O)[C@H](CCC(N)=O)NC(=O)[C@H](CCCNC(=N)N)NC(=O)[C@@H]2CSCCC(=O)N3CN(CN(C3)C(=O)CCSC[C@H](NC(=O)[C@@H](N)CCCNC(=N)N)C(=O)N[C@@H](Cc3ccccc3)C(=O)N[C@@H](CCCNC(=N)N)C(=O)N[C@@H](CC(C)C)C(=O)N3CCC[C@H]3C(=O)N2)C(=O)CCSC[C@@H](C(=O)N[C@@H](CCCNC(=N)N)C(N)=O)NC(=O)[C@H](CCCNC(=N)N)NC1=O [FXII618]

SMILES: CC(C)C[C@@H]1NC(=O)[C@H](CCC(N)=O)NC(=O)[C@H](Cc2c[nH]cn2)NC(=O)[C@@H]2CSCCC(=O)N3CN(CN(C3)C(=O)CCSC[C@H](NC(=O)[C@@H](CO)NC(=O)[C@H](N)CCCNC(=N)N)C(=O)N[C@@H](Cc3ccc(F)cc3)C(=O)N[C@@H](CCCNC(=N)N)C(=O)N[C@@H](CC(C)C)C(=O)N3CCC[C@H]3C(=O)N2)C(=O)CCSC[C@@H](C(N)=O)NC(=O)C[C@H](CCCNC(=N)N)NC1=O [FXII900] (H-[dR][dS]C[Phe(4-F)]RLPCHQL[β3hR]C-NH2; linker 3-8-13 via TATA)
Ki: 17.4 ± 1.4 nM
remaining activity at 0.0005 µM (read-out: Residual activity (%), Recombinant pig FXII, peptide 0.5 nM, individual plates): 99.6%
remaining activity at 0.001 µM (read-out: Residual activity (%), Recombinant pig FXII, peptide 1 nM, individual plates): 93.5%
remaining activity at 0.002 µM (read-out: Residual activity (%), Recombinant pig FXII, peptide 2 nM, individual plates): 91.1%
remaining activity at 0.004 µM (read-out: Residual activity (%), Recombinant pig FXII, peptide 4 nM, individual plates): 83.3%
remaining activity at 0.008 µM (read-out: Residual activity (%), Recombinant pig FXII, peptide 8 nM, individual plates): 71.6%
remaining activity at […] (read-out: Residual activity (%), Recombinant pig FXII, peptide 16 nM, individual plates): 55.5%
remaining activity at […] (read-out: Residual activity (%), Recombinant pig FXII, peptide 32 nM, individual plates): 38.2%
remaining activity at 0.064 µM (read-out: Residual activity (%), Recombinant pig FXII, peptide 64 nM, individual plates): 23.5%
remaining activity at 0.128 µM (read-out: Residual activity (%), Recombinant pig FXII, peptide 128 nM, individual plates): 11.5%
remaining activity at 0.256 µM (read-out: Residual activity (%), Recombinant pig FXII, peptide 256 nM, individual plates): 7.16%
remaining activity at 0.512 µM (read-out: Residual activity (%), Recombinant pig FXII, peptide 512 nM, individual plates): 5.15%
